Test results reported in US11866450B2, “Modulators of Cystic Fibrosis Transmembrane Conductance regulator, pharmaceutical compositions, methods of treatment, and process for making the modulators” (priority 2018, dated 2024).
Where two headings read alike, the source gives them in different places.

Assays:
[1] = snar bond
[2] = target: CFTR-mediated chloride transport (Homo sapiens, UniProt P13569); assay type: cell-based; settings: enteroid cells incubated with test compound 18-24 hours, acute 10 μM forskolin and 300 nM Compound III; for Max. Activity: % of chloride transport with 3 μM Compound A, 3 μM Compound II and 300 nM acute Compound III triple combination control
Method in brief: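 Human intestinal enteroid cells incubated with compound 18–24 h at 37° C., then membrane potential dye (FLIPR) read 15 min after chloride-free stimulation with 10 μM forskolin, 100 μM IBMX and 300 nM Compound III. AUC expressed as % of triple-combination control (3 μM Compound A, 3 μM Compound II, 300 nM Compound III).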

[3] = snar bond; remark: listed apart in the source

CFTR-mediated chloride transport, sequence (P13569 whole entry, looked up): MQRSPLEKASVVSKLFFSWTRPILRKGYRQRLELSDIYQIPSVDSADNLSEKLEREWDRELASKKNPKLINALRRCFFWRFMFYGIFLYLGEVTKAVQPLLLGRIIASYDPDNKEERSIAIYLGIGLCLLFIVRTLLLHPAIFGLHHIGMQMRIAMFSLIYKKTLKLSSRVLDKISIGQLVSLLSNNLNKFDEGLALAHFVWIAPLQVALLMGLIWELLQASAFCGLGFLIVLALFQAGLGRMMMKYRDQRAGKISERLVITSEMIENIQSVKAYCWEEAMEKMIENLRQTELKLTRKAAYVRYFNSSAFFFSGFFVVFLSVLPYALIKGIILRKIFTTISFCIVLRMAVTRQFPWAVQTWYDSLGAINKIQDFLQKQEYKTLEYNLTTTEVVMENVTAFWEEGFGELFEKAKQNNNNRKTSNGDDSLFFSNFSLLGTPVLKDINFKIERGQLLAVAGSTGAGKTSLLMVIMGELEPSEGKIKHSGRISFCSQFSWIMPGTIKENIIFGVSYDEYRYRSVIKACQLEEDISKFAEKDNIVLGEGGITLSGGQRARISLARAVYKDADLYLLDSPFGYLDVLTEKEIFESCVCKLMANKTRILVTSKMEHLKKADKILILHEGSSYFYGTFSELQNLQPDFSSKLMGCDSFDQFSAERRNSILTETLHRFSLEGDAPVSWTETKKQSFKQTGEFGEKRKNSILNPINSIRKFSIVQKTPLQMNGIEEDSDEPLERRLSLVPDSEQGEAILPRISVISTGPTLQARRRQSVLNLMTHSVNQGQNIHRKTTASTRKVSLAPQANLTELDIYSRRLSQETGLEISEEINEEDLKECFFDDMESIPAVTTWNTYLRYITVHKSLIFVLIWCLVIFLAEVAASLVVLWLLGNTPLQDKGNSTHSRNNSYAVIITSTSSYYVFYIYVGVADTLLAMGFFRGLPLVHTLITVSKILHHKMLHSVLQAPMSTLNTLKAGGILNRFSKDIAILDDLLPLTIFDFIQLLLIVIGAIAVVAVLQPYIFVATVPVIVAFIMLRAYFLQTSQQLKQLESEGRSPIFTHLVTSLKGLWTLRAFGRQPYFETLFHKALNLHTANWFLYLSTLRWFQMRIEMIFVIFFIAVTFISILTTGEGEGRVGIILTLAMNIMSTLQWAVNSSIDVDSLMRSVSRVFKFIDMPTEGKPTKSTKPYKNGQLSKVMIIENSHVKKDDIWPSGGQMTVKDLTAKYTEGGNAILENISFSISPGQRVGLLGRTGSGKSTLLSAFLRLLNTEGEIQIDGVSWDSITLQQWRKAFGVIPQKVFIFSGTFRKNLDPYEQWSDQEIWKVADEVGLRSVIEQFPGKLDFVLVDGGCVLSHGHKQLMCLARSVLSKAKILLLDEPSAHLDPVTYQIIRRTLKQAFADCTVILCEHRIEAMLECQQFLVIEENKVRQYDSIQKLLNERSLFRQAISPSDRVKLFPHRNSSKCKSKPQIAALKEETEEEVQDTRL

CC1(C)CC2CC(F)CNc3cccc(n3)S(=O)(=O)NC(=O)c3ccc(-n4ccc(OCCC5C6(CC6)C56CC6)n4)nc3N1C2 (centres unmarked)
ring closure, isolated yield ([1]; from 2-chloro-N-[[6-[[3-(5,5-dimethylpyrrolidin-3-yl)-2-fluoro-propyl]amino]-2-pyridyl]sulfonyl]-6-[3-(2-dispiro[2.0.2.1]heptan-7-ylethoxy)pyrazol-1-yl]pyridine-3-carboxamide (dihydrochloride salt), 15-membered ring, K2CO3, NMP, 32.3 mM, 150.0 °C): 76%

CC1(C)CC2CCCCNc3ccc(cn3)S(=O)(=O)NC(=O)c3ccc(-n4ccc(OCC5C6(CC6)C56CC6)n4)nc3N1C2 (centres unmarked)
ring closure, isolated yield ([1]; from 2-chloro-N-[[6-[4-(5,5-dimethylpyrrolidin-3-yl)butylamino]-3-pyridyl]sulfonyl]-6-[3-(dispiro[2.0.2.1]heptan-7-ylmethoxy)pyrazol-1-yl]pyridine-3-carboxamide (dihydrochloride salt), 17-membered ring, K2CO3/CsF, NMP, 115.5 mM): 22%

CC1(C)CC2CCCn3ccc(n3)S(=O)(=O)NC(=O)c3ccc(-n4ccc(OCCC5C(C)(C)C5(C)C)n4)nc3N1C2 (centres unmarked)
ring closure, isolated yield ([1]; from CC(C)(C)OC(=O)N1CC(CCCn2ccc(S(=O)(=O)NC(=O)c3ccc(-n4ccc(OCCC5C(C)(C)C5(C)C)n4)nc3Cl)n2)CC1(C)C, 14-membered ring, K2CO3/3A MS, NMP, 49.2 mM, 160.0 °C, 2 steps): 20%

CC1(C)CCC2CCCNc3cccc(n3)S(=O)(=O)NC(=O)c3ccc(-n4ccc(OCC5C6(CC6)C56CC6)n4)nc3N21 (centres unmarked)
ring closure, isolated yield ([1]; from 2-chloro-N-[[6-[3-(5,5-dimethylpyrrolidin-2-yl)propylamino]-2-pyridyl]sulfonyl]-6-[3-(dispiro[2.0.2.1]heptan-7-ylmethoxy)pyrazol-1-yl]pyridine-3-carboxamide (dihydrochloride salt), 14-membered ring, K2CO3/CsF, NMP, 123.1 mM): 41%

CC1(C)C[C@@H]2CCCNc3cc(OCc4ccccc4)cc(n3)S(=O)(=O)NC(=O)c3ccc(-n4ccc(OCCC5C6(CC6)C56CC6)n4)nc3N1C2
ring closure, isolated yield ([1]; from CC1(C)C[C@H](CCCNc2cc(OCc3ccccc3)cc(S(=O)(=O)NC(=O)c3ccc(-n4ccc(OCCC5C6(CC6)C56CC6)n4)nc3Cl)n2)CN1, 15-membered ring, K2CO3/CsF, DMSO, 15.3 mM, 160.0 °C, 15.0 h): 61%

CC1(C)C[C@@H]2CCCNc3cc(OCc4ccccc4)cc(n3)S(=O)(=O)NC(=O)c3ccc(-n4ccc(OCCCC5(C(F)(F)F)CC5)n4)nc3N1C2
ring closure, isolated yield ([1]; from CC1(C)C[C@H](CCCNc2cc(OCc3ccccc3)cc(S(=O)(=O)NC(=O)c3ccc(-n4ccc(OCCCC5(C(F)(F)F)CC5)n4)nc3Cl)n2)CN1, 15-membered ring, K2CO3/CsF, DMSO, 14.1 mM, 160.0 °C, 15.0 h): 56%

CC1(C)C[C@@H]2CCCNc3ccc(OCc4ccccc4)c(n3)S(=O)(=O)NC(=O)c3ccc(-n4ccc(OCCC5C6(CC6)C56CC6)n4)nc3N1C2
ring closure, isolated yield ([1]; from CC1(C)C[C@H](CCCNc2ccc(OCc3ccccc3)c(S(=O)(=O)NC(=O)c3ccc(-n4ccc(OCCC5C6(CC6)C56CC6)n4)nc3Cl)n2)CN1, 15-membered ring, K2CO3, NMP, 57.2 mM, 150.0 °C, 20.0 h): 37%

CC1(C)C[C@@H]2CCCNc3ccc(OCc4ccccc4)c(n3)S(=O)(=O)NC(=O)c3ccc(-n4ccc(OCCCC5(C(F)(F)F)CC5)n4)nc3N1C2
ring closure, isolated yield ([1]; from N-[[3-benzyloxy-6-[3-[(3S)-5,5-dimethylpyrrolidin-3-yl]propylamino]-2-pyridyl]sulfonyl]-2-chloro-6-[3-[3-[1-(trifluoromethyl)cyclopropyl]propoxy]pyrazol-1-yl]pyridine-3-carboxamide (ditrifluoroacetate salt), 15-membered ring, K2CO3, NMP, 42.6 mM, 150.0 °C): 39%

CC1(C)C[C@@H]2CCCNc3cccc(n3)S(=O)(=O)NC(=O)c3ccc(-n4ccc(OCC(O[Si](C)(C)C(C)(C)C)C5C6(CC6)C56CC6)n4)nc3N1C2 (some centres unmarked)
ring closure, isolated yield ([1]; from CC1(C)C[C@H](CCCNc2cccc(S(=O)(=O)NC(=O)c3ccc(-n4ccc(OCC(O[Si](C)(C)C(C)(C)C)C5C6(CC6)C56CC6)n4)nc3Cl)n2)CN1, 15-membered ring, K2CO3/MS, DMSO, 9.9 mM, 140.0 °C, 12.0 h): 55%

CC1(C)C[C@@H]2CCCNc3cccc(n3)S(=O)(=O)NC(=O)c3ccc(Cl)nc3N1C2
ring closure, isolated yield ([1]; from 2,6-dichloro-N-[[6-[3-[(3S)-5,5-dimethylpyrrolidin-3-yl]propylamino]-2-pyridyl]sulfonyl]pyridine-3-carboxamide (dihydrochloride salt), 15-membered ring, K2CO3/CsF/3A MS, NMP, 113.8 mM, 150.0 °C): 54%

CC1(C)C[C@@H]2CCCNc3cccc(n3)S(=O)(=O)NC(=O)c3ccc(N4CCC(OCCC5C6(CC6)C56CC6)C4=O)nc3N1C2 (some centres unmarked)
ring closure, isolated yield ([1]; from 2-chloro-N-[[6-[3-[(3S)-5,5-dimethylpyrrolidin-3-yl]propylamino]-2-pyridyl]sulfonyl]-6-[3-(2-dispiro[2.0.2.1]heptan-7-ylethoxy)-2-oxo-pyrrolidin-1-yl]pyridine-3-carboxamide (dihydrochloride salt), 15-membered ring, K2CO3, NMP, 24.0 mM, 150.0 °C): 52%

CC1(C)C[C@@H]2CCCNc3nc(ccc3OCc3ccccc3)S(=O)(=O)NC(=O)c3ccc(-n4ccc(OCCC5C6(CC6)C56CC6)n4)nc3N1C2
ring closure, isolated yield ([1]; from CC1(C)C[C@H](CCCNc2nc(S(=O)(=O)NC(=O)c3ccc(-n4ccc(OCCC5C6(CC6)C56CC6)n4)nc3Cl)ccc2OCc2ccccc2)CN1, 15-membered ring, K2CO3/CsF, DMSO, 17.2 mM, 160.0 °C, 15.0 h): 83%

CC1(C)C[C@@H]2CCCNc3nc(ccc3OCc3ccccc3)S(=O)(=O)NC(=O)c3ccc(-n4ccc(OCCCC5(C(F)(F)F)CC5)n4)nc3N1C2
ring closure, isolated yield ([1]; from CC1(C)CC(CCCNc2nc(S(=O)(=O)NC(=O)c3ccc(-n4ccc(OCCCC5(C(F)(F)F)CC5)n4)nc3Cl)ccc2OCc2ccccc2)CN1, 15-membered ring, K2CO3/CsF, DMSO, 17.7 mM, 160.0 °C, 15.0 h): 82%

CC1CCC2CN(c3nc(Cl)ccc3C(=O)NS(=O)(=O)c3cccc(n3)N1)C(C)(C)C2 (centres unmarked)
ring closure, isolated yield ([1]; from CC(CCC1CN(C(=O)OC(C)(C)C)C(C)(C)C1)Nc1cccc(S(=O)(=O)NC(=O)c2ccc(Cl)nc2Cl)n1, 15-membered ring, K2CO3/CsF/3A MS, DMSO, 229.0 mM, 140.0 °C, 2 steps): 31%

CC1(C)C[C@@H]2CCCNc3cccc(n3)S(=O)(=O)NC(=O)c3ccc(-n4cccc(OCCC5(C(F)(F)F)CC5)c4=O)nc3N1C2 [Compound 268, (14S)-12,12-Dimethyl-8-(2-oxo-3-{2-[1-(trifluoromethyl)cyclopropyl]ethoxy}-1,2-dihydropyridin-1-yl)-2λ^6-thia-3,9,11,18,23-pentaazatetracyclo[17.3.1.111,14.05,10]tetracosa-1(23),5(10),6,8,19,21-hexaene-2,2,4-trione]
EC50 [2]: > 3000 nM | Max. Activity [2]: ++ (++ is 30-60%) | ring closure, yield after HPLC ([3]; from CC(C)(C)OC(=O)N1C[C@@H](CCCNc2cccc(S(=O)(=O)NC(=O)c3ccc(-n4cccc(OCCC5(C(F)(F)F)CC5)c4=O)nc3Cl)n2)CC1(C)C, 15-membered ring, K2CO3/CsF/3A MS, DMSO, 12.0 mM, 150.0 °C, 2 steps): 49%

[2H]C([2H])(COc1ccn(-c2ccc3c(n2)N2C[C@@H](CCCNc4cccc(n4)S(=O)(=O)NC3=O)CC2(C)C)n1)CC1(C(F)(F)F)CC1 [Compound 270, (14S)-12,12-Dimethyl-8-(3-{3-[1-(trifluoromethyl)cyclopropyl]-2,2-dideuterio-propoxy}-1H-pyrazol-1-yl)-2λ^6-thia-3,9,11,18,23-pentaazatetracyclo[17.3.1.111,14.05,10]tetracosa-1(23),5(10),6,8,19,21-hexaene-2,2,4-trione]
EC50 [2]: < 1000 nM | Max. Activity [2]: +++ (+++ is >60%) | ring closure, yield after HPLC ([3]; from [2H]C([2H])(COc1ccn(-c2ccc(C(=O)NS(=O)(=O)c3cccc(NCCC[C@@H]4CN(C(=O)OC(C)(C)C)C(C)(C)C4)n3)c(Cl)n2)n1)CC1(C(F)(F)F)CC1, 15-membered ring, TFA/DCM, then K2CO3/CsF/3A MS, DMSO, 27.0 mM, 150.0 °C, 2 steps): 44%

CC1(C)CC2CCn3ccc(n3)S(=O)(=O)NC(=O)c3ccc(-n4ccc(OCCCC5(C(F)(F)F)CC5)n4)nc3N1C2 (centres unmarked) [Compound 273, 19,19-Dimethyl-4-(3-{3-[1-(trifluoromethyl)cyclopropyl]propoxy}-1H-pyrazol-1-yl)-10λ^6-thia-1,3,9,14,21-pentaazatetracyclo[15.2.1.111,14.02,7]henicosa-2,4,6,11(21),12-pentaene-8,10,10-trione]
EC50 [2]: < 1000 nM | Max. Activity [2]: + (+ is <30%) | ring closure, yield after HPLC ([3]; from CC1(C)CC(CCn2ccc(S(=O)(=O)NC(=O)c3ccc(-n4ccc(OCCCC5(C(F)(F)F)CC5)n4)nc3Cl)n2)CN1, 13-membered ring, K2CO3/CsF/3A MS, DMSO, 25.5 mM, 150.0 °C): 11%

CC1(C)CC2CCCCn3ccc(n3)S(=O)(=O)NC(=O)c3ccc(-n4ccc(OCCCC5(C(F)(F)F)CC5)n4)nc3N1C2 (centres unmarked) [Compound 275, 21,21-Dimethyl-4-(3-{3-[1-(trifluoromethyl)cyclopropyl]propoxy}-1H-pyrazol-1-yl)-10λ^6-thia-1,3,9,14,23-pentaazatetracyclo[17.2.1.111,14.02,7]tricosa-2,4,6,11(23),12-pentaene-8,10,10-trione]
EC50 [2]: 1000 to 3000 nM | Max. Activity [2]: ++ (++ is 30-60%) | ring closure, yield after HPLC ([3]; from CC1(C)CC(CCCCn2ccc(S(=O)(=O)NC(=O)c3ccc(-n4ccc(OCCCC5(C(F)(F)F)CC5)n4)nc3Cl)n2)CN1, 15-membered ring, K2CO3/CsF/3A MS, DMSO, 24.7 mM, 150.0 °C, 18.0 h): 47%

Cc1nn2cc1S(=O)(=O)NC(=O)c1ccc(-n3ccc(OCC(C)(C)C(F)(F)F)n3)nc1N1CC(CCC2)CC1(C)C (centres unmarked) [Compound 281, 12,20,20-trimethyl-4-[3-(3,3,3-trifluoro-2,2-dimethylpropoxy)-1H-pyrazol-1-yl]-10λ^6-thia-1,3,9,13,14-pentaazatetracyclo[16.2.1.111,14.02,7]docosa-2,4,6,11(22),12-pentaene-8,10,10-trione]
EC50 [2]: 1000 to 3000 nM | Max. Activity [2]: + (+ is <30%) | ring closure, yield after HPLC ([3]; from Cc1nn(CCCC2CNC(C)(C)C2)cc1S(=O)(=O)NC(=O)c1ccc(-n2ccc(OCC(C)(C)C(F)(F)F)n2)nc1Cl, 14-membered ring, K2CO3/CsF/3A MS, DMSO, 25.9 mM, 150.0 °C): 17%

CC1(C)C[C@@H]2CCCNc3cccc(n3)S(=O)(=O)NC(=O)c3ccc(C4=CCCCO4)nc3N1C2 [Compound 303, (14S)-8-(3,4-dihydro-2H-pyran-6-yl)-12,12-dimethyl-2λ^6-thia-3,9,11,18,23-pentaazatetracyclo[17.3.1.111,14.05,10]tetracosa-1(22),5,7,9,19(23),20-hexaene-2,2,4-trione]
EC50 [2]: < 1000 nM | Max. Activity [2]: +++ (+++ is >60%) | ring closure, yield after HPLC ([3]; from CC1(C)C[C@H](CCCNc2cccc(S(=O)(=O)NC(=O)c3ccc(C4=CCCCO4)nc3Cl)n2)CN1, 15-membered ring, K2CO3, NMP, 25.7 mM, 180.0 °C): 3%
